The source made the active and inactive calls.
Columns and labels:
[1] = biological target: T1, Nuclear receptor subfamily 0 group B member 1 (Homo sapiens, UniProt P51843); assay type: functional, cell-based;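 note: HEK293T cells transfected with SF-1 and DAX-1 plus StAR promoter luciferase reporter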
T1 sequence (P51843 whole entry): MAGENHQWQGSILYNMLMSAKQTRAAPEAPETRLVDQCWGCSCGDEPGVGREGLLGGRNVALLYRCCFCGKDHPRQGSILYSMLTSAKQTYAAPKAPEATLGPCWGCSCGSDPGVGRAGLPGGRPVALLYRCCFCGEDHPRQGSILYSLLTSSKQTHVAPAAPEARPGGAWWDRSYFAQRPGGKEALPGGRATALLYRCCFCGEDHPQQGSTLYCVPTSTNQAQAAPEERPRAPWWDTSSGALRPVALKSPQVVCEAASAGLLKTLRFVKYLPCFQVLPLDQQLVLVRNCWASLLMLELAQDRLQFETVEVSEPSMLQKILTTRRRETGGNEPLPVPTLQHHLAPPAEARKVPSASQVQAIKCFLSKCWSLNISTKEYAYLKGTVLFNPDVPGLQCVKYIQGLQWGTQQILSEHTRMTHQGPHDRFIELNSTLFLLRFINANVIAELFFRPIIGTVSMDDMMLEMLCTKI

cells [2] = assay type: functional, cell-based
[3] = biological target: T2, Oxysterols receptor LXR-beta (Homo sapiens, UniProt P55055); assay type: functional, cell-based;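 note: Cell-based luminescence dose-response assay of agonist activity at LXR, run as a confirmatory counterscreen to a daf-12 agonist screen; HEK293 cells with Gal4-LXR fusion and GAL4-driven luciferase reporter; agonist potency from rising luciferase signal of a Gal4-LXR reporter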
T2 sequence (P55055 whole entry): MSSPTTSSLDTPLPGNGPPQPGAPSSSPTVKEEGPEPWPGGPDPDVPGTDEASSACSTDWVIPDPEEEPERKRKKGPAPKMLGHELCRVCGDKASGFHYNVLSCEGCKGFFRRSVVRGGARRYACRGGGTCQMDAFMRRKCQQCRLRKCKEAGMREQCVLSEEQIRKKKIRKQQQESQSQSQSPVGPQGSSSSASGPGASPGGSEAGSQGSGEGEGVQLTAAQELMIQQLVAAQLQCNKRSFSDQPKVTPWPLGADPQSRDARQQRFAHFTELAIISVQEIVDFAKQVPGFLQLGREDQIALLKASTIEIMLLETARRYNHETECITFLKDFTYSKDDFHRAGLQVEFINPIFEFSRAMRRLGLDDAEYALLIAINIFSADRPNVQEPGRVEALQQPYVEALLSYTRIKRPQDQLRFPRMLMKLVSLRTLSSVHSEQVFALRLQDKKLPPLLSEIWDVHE

cells [4] = assay: cells
Paired box protein Pax-8 = Paired box protein Pax-8 (Homo sapiens, UniProt Q06710); assay: PAX8 transcriptional activity inhibition in RMG-I – RMG-I cells, luciferase, cherry-pick, dose response (AID 687027); assay type: functional, cell-based;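 note: luciferase reporter driven by Pax8 target thyroperoxidase promoter measured by SteadyGlo luminescence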
[5] = general cell-killing toxicity readout – plate reader, dry powder samples, cytotoxicity control for PAX8 inhibitor project, dose response (AID 743021); assay type: functional, cell-based
[6] = OVCAR8 cell viability loss – plate reader, dry powder samples, PAX8 project, dose response (AID 743197); assay type: functional, cell-based; details: OVCAR-8
[7] = IGROV1 cell killing – plate reader, dry powder samples, PAX8 inhibitor project, dose response (AID 743043); assay type: functional, cell-based; details: IGROV-1
[8] = A2780 cell killing – plate reader, dry powder samples, cytotoxicity control, dose response (AID 743046); assay type: functional, cell-based
[9] = OVCAR-3 cell viability loss – plate reader, dry powder samples, PAX8 inhibitor project, dose response (AID 743044); assay type: functional, cell-based
[10] = general mammalian cell viability loss – activator set, cherry-pick, cytotoxicity control for miR-122 modulator project, dose response (AID 720690); assay type: functional, cell-based;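 note: HEK293T human cells scored for general mammalian cytotoxicity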
Protein skinhead-1 = biological target: T3, Protein skinhead-1 (Caenorhabditis elegans, UniProt P34707); assay type: functional
T3 sequence (P34707 whole entry): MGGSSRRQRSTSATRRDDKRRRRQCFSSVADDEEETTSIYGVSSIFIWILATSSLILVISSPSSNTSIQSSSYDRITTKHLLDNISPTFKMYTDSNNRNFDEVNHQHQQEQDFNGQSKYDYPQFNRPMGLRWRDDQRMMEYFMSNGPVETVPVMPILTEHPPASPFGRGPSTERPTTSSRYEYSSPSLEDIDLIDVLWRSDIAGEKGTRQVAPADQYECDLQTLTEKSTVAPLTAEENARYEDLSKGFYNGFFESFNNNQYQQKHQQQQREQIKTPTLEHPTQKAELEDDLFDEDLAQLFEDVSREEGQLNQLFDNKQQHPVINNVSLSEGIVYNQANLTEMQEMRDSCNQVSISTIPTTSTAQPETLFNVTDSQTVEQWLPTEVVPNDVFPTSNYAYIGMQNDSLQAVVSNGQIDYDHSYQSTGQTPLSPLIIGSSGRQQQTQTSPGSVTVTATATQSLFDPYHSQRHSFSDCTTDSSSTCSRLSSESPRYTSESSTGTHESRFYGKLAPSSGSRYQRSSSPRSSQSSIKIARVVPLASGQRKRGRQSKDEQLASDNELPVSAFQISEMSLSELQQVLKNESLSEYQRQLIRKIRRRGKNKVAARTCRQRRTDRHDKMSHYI

[11] = biological target: COUP transcription factor 2 (Homo sapiens, UniProt P24468); assay: Luminescence-based cell-based high throughput dose response assay to identify inhibitors of COUP-TFII (NR2F2).; assay type: functional;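 note: HEK293 cells transiently cotransfected with COUP-TFII expression vector and reporter; luciferase reporter luminescence driven by COUP-TFII from the pX2-168 reporter plasmid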
[12] = biological target: Disintegrin and metalloproteinase domain-containing protein 17 (Homo sapiens, UniProt P78536); assay: inhibition of ADAM17 substrate cleavage – biochemical, quenched FRET substrate, counter-screen for ADAM10 exosite inhibitor project, dose response (AID 743253)
[13] = potency of ADAM10 substrate cleavage blockers – biochemical, QFRET, dose response (AID 743254);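 note: ADAM10 enzyme with the DM2 quenched FRET peptide as substrate; EDANS fluorescence gain as the protease cuts the substrate; inhibitor potency against ADAM10 proteolytic activity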
[14] = biological target: Fructose-bisphosphate aldolase (Mycobacterium tuberculosis, UniProt P9WQA3); assay: Fluorescence-based biochemical high throughput dose response assay for inhibitors of the fructose-bisphosphate aldolase (FBA) of M. tuberculosis.; assay type: functional
[15] = anti-trypanosomal activity in BESM host cells – imaging, CA-I/72 strain, bovine embryo skeletal muscle, dry powder, dose response (AID 651885); assay type: functional, cell-based
[16] = mouse fibroblast viability loss – cell-based, cherry-pick samples, set 2, cytotoxicity control for T. cruzi growth inhibitor project, dose response (AID 651817); assay type: functional; details: NIH3T3

Paired box protein Pax-8, sequence (Q06710 whole entry): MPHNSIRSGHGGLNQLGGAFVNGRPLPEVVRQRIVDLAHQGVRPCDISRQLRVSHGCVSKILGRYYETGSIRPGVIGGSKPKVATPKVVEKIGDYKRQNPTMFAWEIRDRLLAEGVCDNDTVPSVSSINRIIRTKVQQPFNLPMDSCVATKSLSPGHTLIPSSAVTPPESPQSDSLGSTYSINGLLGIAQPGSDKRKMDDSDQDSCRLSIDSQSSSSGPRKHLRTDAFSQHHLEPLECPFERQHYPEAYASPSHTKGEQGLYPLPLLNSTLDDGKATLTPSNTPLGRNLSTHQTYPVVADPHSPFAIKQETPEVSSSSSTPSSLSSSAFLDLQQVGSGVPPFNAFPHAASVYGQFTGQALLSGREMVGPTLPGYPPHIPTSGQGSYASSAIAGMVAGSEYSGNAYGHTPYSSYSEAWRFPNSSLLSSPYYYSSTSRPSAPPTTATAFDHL
COUP transcription factor 2, sequence (P24468 whole entry, the tested form may be a part): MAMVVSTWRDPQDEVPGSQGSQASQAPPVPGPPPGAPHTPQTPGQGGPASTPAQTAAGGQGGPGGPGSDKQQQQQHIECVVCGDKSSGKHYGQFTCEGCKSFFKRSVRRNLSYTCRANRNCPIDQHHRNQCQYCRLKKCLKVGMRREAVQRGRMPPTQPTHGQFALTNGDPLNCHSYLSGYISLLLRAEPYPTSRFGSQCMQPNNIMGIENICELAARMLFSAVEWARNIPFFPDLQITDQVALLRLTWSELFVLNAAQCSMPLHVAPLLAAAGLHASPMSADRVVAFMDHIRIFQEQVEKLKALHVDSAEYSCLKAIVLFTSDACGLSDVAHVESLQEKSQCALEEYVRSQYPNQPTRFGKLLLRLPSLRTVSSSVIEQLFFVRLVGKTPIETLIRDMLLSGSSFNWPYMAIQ
Disintegrin and metalloproteinase domain-containing protein 17, sequence (P78536 whole entry, the tested form may be a part): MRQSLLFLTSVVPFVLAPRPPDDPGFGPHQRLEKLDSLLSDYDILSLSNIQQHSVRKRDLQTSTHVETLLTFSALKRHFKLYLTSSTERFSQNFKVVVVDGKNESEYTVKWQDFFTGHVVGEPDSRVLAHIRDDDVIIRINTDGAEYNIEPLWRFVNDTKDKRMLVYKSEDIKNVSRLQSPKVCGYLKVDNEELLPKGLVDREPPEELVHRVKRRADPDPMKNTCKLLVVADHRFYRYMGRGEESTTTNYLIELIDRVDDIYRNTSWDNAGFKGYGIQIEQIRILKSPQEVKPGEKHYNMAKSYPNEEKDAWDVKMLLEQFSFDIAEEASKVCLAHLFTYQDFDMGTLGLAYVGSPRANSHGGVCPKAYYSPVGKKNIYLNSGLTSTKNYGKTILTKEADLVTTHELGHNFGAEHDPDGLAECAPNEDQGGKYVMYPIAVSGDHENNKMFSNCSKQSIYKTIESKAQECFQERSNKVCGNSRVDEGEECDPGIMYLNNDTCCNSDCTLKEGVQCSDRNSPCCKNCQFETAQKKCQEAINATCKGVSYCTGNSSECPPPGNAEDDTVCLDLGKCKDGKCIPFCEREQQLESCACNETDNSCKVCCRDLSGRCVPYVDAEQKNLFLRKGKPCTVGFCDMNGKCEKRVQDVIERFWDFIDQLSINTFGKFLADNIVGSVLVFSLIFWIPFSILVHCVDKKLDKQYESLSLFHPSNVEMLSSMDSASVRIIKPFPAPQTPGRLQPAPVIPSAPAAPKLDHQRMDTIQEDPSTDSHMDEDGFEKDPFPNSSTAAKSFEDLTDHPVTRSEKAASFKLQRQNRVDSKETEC
Fructose-bisphosphate aldolase, sequence (P9WQA3 whole entry): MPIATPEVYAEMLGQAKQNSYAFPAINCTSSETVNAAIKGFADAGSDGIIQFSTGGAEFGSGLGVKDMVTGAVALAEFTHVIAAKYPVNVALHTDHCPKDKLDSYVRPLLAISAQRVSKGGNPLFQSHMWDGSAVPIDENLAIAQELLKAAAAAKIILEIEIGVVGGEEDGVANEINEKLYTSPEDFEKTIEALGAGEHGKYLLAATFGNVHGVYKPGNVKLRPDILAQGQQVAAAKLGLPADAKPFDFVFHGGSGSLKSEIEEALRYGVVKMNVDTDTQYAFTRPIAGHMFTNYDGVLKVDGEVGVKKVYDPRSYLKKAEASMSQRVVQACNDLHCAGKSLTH

For Cc1ccc2c(Cl)c(C(=O)NC3CC3)sc2c1, the IC50 [1] was > 7.49 µM (active) and the IC50 (cells [2]) was > 67.5 µM (inactive).

With CC1=NN(C(N)=S)C(=O)C1N=Nc1ccc(Br)cc1 (configuration not stated) the EC50 [3] was > 67.6 µM (inactive) and the EC50 (cells [4]) was > 67.6 µM (inactive).

In the case of C[C@H](CO)N1C[C@H](C)[C@H](CN(C)Cc2ccc3c(c2)OCO3)OCCCC[C@H](C)Oc2ccc(NC(=O)Nc3ccc(C(F)(F)F)cc3)cc2C1=O, the AC50 (Paired box protein Pax-8) is reported as 9.15 µM (active) and the AC50 [5] is reported as 46.4 µM (active).

With C[C@@H]1CN([C@@H](C)CO)S(=O)(=O)c2ccc(C#Cc3ccccc3F)cc2O[C@H]1CN(C)C(=O)c1ccc2c(c1)OCO2 the AC50 [6] was 17.7 µM (active), the AC50 [7] was 28.5 µM (active) and the AC50 (Paired box protein Pax-8) was 4.88 µM (active). The AC50 [8] was 0.765 µM (active), the AC50 [9] was 6.2 µM (active) and the AC50 [10] was 5.74 µM (active).

For O=c1c2ccccc2cnn1-c1ccc(Br)cc1, the EC50 [3] was > 67.5 µM (inactive) and the EC50 (cells [4]) was > 67.5 µM (inactive).

For Cc1ccc(F)cc1NC(=O)Cc1nn(C)c(=O)c2ccccc12, the IC50 (Protein skinhead-1) was > 100 µM (inactive) and the IC50 [11] was 12.7 µM (inactive).

For CCCOc1ccc(NC(=O)CC2C(=O)N(Cc3ccccc3)C(=S)N2Cc2cccs2)cc1 (configuration not stated), the IC50 [12] was > 69.6 µM (inactive) and the IC50 [13] was 44.4 µM (inactive).

With CS(=O)(=O)NN1C(=O)c2ccccc2NC1c1ccccc1 (configuration not stated) the IC50 [14] was > 1.11 µM (active).

With CN1C(=O)c2cc(NC(=O)c3ccc(C(F)(F)F)cc3)ccc2OC[C@@H]2O[C@@H](CC(=O)NCc3ccc4c(c3)OCO4)CC[C@H]21 the AC50 [10] was 20.3 µM (active).

For C[C@@H]1CN([C@@H](C)CO)C(=O)c2cccc(NC(=O)c3ccncc3)c2O[C@H]1CN(C)Cc1ccncc1, the IC50 [15] was 17.3 µM (inconclusive).

In the case of C[C@H]1CN([C@@H](C)CO)C(=O)Cc2cc(NS(=O)(=O)c3ccc(F)cc3)ccc2O[C@H]1CN(C)Cc1ccc(Cl)c(Cl)c1, the AC50 [16] is reported as 39 µM (inactive).
